Test results from PubChem BioAssay AID2060884 (Molecular Pharmacology Branch, DTP, NCI, 2025).
Blank lines part the entries; values can stand above or below the compound they belong to.

System: NCI-H929 complex spheroids, viability % test/control
Assay: Anticancer human tumor NCI-H929 cell line growth inhibition [RAS];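 further: compound exposure lasted seven days before viability was read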
Conditions: for IC50: curve of first compound; for viability, T/C: stronger effect = lower value
Text: RAS pathway inhibitors in Combinations in Complex Spheroids
A high-throughput screen of multi-cell type tumor spheroids was designed to identify active combinations of RAS pathway inhibitors and targeted small molecules. Complex spheroids include a stromal component modeled by human endothelial cells (HUVEC) and fibroblasts modeled by human mesenchymal stem cells (MSCs). The concentration ranges selected for each drug and investigational agent were based upon clinically achievable concentrations if the clinical Cmax of the agent was known.
Compounds. The drugs and investigational agents: abemaciclib (NSC768073), cobimetinib (NSC768068), divarasib (GDC6063, NSC841802), docetaxel (NSC628503), GDC-1971 (RLY-1971, NSC841576), gemcitabine (NSC613327), inavolisib (NSC800729), ipatasertib (NSC767898), KB-0742 (NSC834161), MRTX-1133 (NSC836407), osimertinib (NSC779217), RMC-4630 (NSC839698), RMC-6236 (NSC851965), RMC-6291 (NSC852671), Ro-3306 (NSC812927), sapanisertib (NSC764658), SN-38 (NSC673596), staurosporine (NSC755774), SY5609 (NSC837396), and tovorafenib (DAY101, NSC766906), were obtained from the National Cancer Institute (NCI) Developmental Therapeutics Program Chemical Repository. The FDA-approved anticancer drug set is available from the NCI Developmental Therapeutics Program. […] The stock solutions were prepared in dimethyl sulfoxide (DMSO, Sigma-Aldrich, St. Louis, MO, cat. D2650) at 800-fold the tested concentration and stored at -70 degrees C prior to their use. All drugs and investigational agents were tested over a range starting from a high concentration at or near the clinical Cmax and decreasing in half-log increments. If the clinical Cmax for an agent had not been determined, the highest concentration tested was 10 microM.
Cell Culture. All cells were maintained in an incubator at 37 degrees C and 5% CO2 with 95% humidity. The PDC lines were cultured according to standard operating procedures established by the NCI PDMR. All PDCs were thawed and cultured in Matrigel-coated flasks prepared with a working solution of 1X Ham's F-12 nutrient mix, without supplementation (Invitrogen, Waltham, MA, cat. 11765054), 100 U/mL penicillin-streptomycin (Invitrogen, cat. 15140122), and 2.5% Matrigel (Corning Inc., Corning, NY, cat. 354248) for the first three passages. The 362531-283-R-J2-PDC and 782815-120-R-J1-PDC lines were cultured in 6C/Colon 1B media, which includes advanced DMEM/F-12 (Thermo Fisher Scientific, cat. 12634028), 10 mM HEPES (Thermo Fisher Scientific, cat. 15630080), 1X GlutaMAX supplement (Thermo Fisher Scientific, cat. 35050061), 0.1 mg/mL primocin (InvivoGen, San Diego, CA, cat. ant-pm-2), 10% defined fetal bovine serum, heat inactivated (HyClone Laboratories Inc., Logan, UT, cat. SH30070.03HI), 50% L-WRN conditioned media (ATCC, cat. CRL-3276), 1.25 mM N-Acetyl-L-cysteine (Sigma-Aldrich, cat. A9165), 10 mM nicotinamide (Sigma-Aldrich, cat. N0636), 1X B-27 supplement (Thermo Fisher Scientific, cat. 17504044), 1X N-2 supplement (Thermo Fisher Scientific, cat. 17502048), 50 ng/mL human EGF (Thermo Fisher Scientific, cat. PHG0311), and 10 microM Y-27632 dihydrochloride (Tocris Bioscience, cat. 1254). The K12877-001-R-J1-PDC line was cultured in 6I media, which includes all 6C/Colon 1B media plus 10 ng/mL human FGF-10 (PeproTech, cat. 100-26), 1 ng/mL human FGF-2 (PeproTech, cat. 100-18B), 1 µM prostaglandin E2 (Tocris Bioscience, cat. 2296), […] hydrocortisone (Sigma-Aldrich, cat. H4001), and […] bovine insulin (Sigma-Aldrich, cat. I6634). The K86415-001-R-J1-PDC line was cultured in 6D media, which includes all 6C/Colon 1B media components minus the L-WRN conditioned media. The 485176-168-R4-J1-PDC was cultured in PANC media, which includes all 6C/Colon 1B media plus 100 ng/mL human FGF-10 (PeproTech, cat. 100-26), 500 nM SB-431542 (Selleckchem, cat. S1067), and 10 nM gastrin (Tocris Bioscience, cat. 3006). […]

IC50 (second compound 0.0316 µM): 18.2 nM | IC50 (second compound 0.1 µM): 18.5 nM | IC50 (second compound 0.316 µM): 18.5 nM | IC50 (second compound 1 µM): 18.1 nM | IC50 (second compound 3.16 µM): 18.5 nM | IC50 (second compound 10 µM): 17.8 nM
Compound: Nc1ccn(C2OC(CO)C(O)C2(F)F)c(=O)n1 (centres undefined) + C#Cc1c(F)ccc2cc(O)cc(-c3ncc4c(N5CC6CCC(C5)N6)nc(OCC56CCCN5CC(F)C6)nc4c3F)c12
viability, T/C (second compound 0.0316 µM, first compound 0.00316 µM): 97.9% | viability, T/C (second compound 0.0316 µM, first compound 0.01 µM): 106% | viability, T/C (second compound 0.0316 µM, first compound 0.0316 µM): 1.73% | viability, T/C (second compound 0.0316 µM, first compound 0.1 µM): 1.71% | viability, T/C (second compound 0.0316 µM, first compound 0.316 µM): 1.77% | viability, T/C (second compound 0.0316 µM, first compound 1 µM): 0.97% | viability, T/C (second compound 0.1 µM, first compound 0.00316 µM): 99.5% | viability, T/C (second compound 0.1 µM, first compound 0.01 µM): 111% | viability, T/C (second compound 0.1 µM, first compound 0.0316 µM): 2.14% | viability, T/C (second compound 0.1 µM, first compound 0.1 µM): 1.9% | viability, T/C (second compound 0.1 µM, first compound 0.316 µM): 0.95% | viability, T/C (second compound 0.1 µM, first compound 1 µM): 1.51% | viability, T/C (second compound 0.316 µM, first compound 0.00316 µM): 102% | viability, T/C (second compound 0.316 µM, first compound 0.01 µM): 106% | viability, T/C (second compound 0.316 µM, first compound 0.0316 µM): 2.97% | viability, T/C (second compound 0.316 µM, first compound 0.1 µM): 2.03% | viability, T/C (second compound 0.316 µM, first compound 0.316 µM): 1.39% | viability, T/C (second compound 0.316 µM, first compound 1 µM): 1.19% | viability, T/C (second compound 1 µM, first compound 0.00316 µM): 97.4% | viability, T/C (second compound 1 µM, first compound 0.01 µM): 105% | viability, T/C (second compound 1 µM, first compound 0.0316 µM): 1.48% | viability, T/C (second compound 1 µM, first compound 0.1 µM): 1.24% | viability, T/C (second compound 1 µM, first compound 0.316 µM): 0.95% | viability, T/C (second compound 1 µM, first compound 1 µM): 0.85% | viability, T/C (second compound 3.16 µM, first compound 0.00316 µM): 97.4% | viability, T/C (second compound 3.16 µM, first compound 0.01 µM): 108% | viability, T/C (second compound 3.16 µM, first compound 0.0316 µM): 3.7% | viability, T/C (second compound 3.16 µM, first compound 0.1 µM): 1.57% | viability, T/C (second compound 3.16 µM, first compound 0.316 µM): 1.67% | viability, T/C (second compound 3.16 µM, first compound 1 µM): 1.18% | viability, T/C (second compound 10 µM, first compound 0.00316 µM): 102% | viability, T/C (second compound 10 µM, first compound 0.01 µM): 97.2% | viability, T/C (second compound 10 µM, first compound 0.0316 µM): 2.56% | viability, T/C (second compound 10 µM, first compound 0.1 µM): 1.28% | viability, T/C (second compound 10 µM, first compound 0.316 µM): 1.24% | viability, T/C (second compound 10 µM, first compound 1 µM): 0.87%

IC50 (second compound 0.000949 µM): 1.88 nM | IC50 (second compound 0.003 µM): 2.18 nM | IC50 (second compound 0.00949 µM): 2 nM | IC50 (second compound 0.03 µM): < 0.949 nM | IC50 (second compound 0.0949 µM): < 0.949 nM | IC50 (second compound 0.3 µM): < 0.949 nM
Compound: CCc1c2c(nc3ccc(O)cc13)-c1cc3c(c(=O)n1C2)COC(=O)[C@]3(O)CC + CCn1c(-c2cc(N3CCN(C)CC3)cnc2C(C)OC)c2c3cc(ccc31)-c1csc(n1)CC(NC(=O)C1CC1C)C(=O)N1CCCC(N1)C(=O)OCC(C)(C)C2
viability, T/C (second compound 0.000949 µM, first compound 0.000949 µM): 108% | viability, T/C (second compound 0.000949 µM, first compound 0.003 µM): 10.3% | viability, T/C (second compound 0.000949 µM, first compound 0.00949 µM): 1.4% | viability, T/C (second compound 0.000949 µM, first compound 0.03 µM): 2.14% | viability, T/C (second compound 0.000949 µM, first compound 0.0949 µM): 0.7% | viability, T/C (second compound 0.000949 µM, first compound 0.3 µM): 0.99% | viability, T/C (second compound 0.003 µM, first compound 0.000949 µM): 103% | viability, T/C (second compound 0.003 µM, first compound 0.003 µM): 29.6% | viability, T/C (second compound 0.003 µM, first compound 0.00949 µM): 1.69% | viability, T/C (second compound 0.003 µM, first compound 0.03 µM): 1.32% | viability, T/C (second compound 0.003 µM, first compound 0.0949 µM): 1.58% | viability, T/C (second compound 0.003 µM, first compound 0.3 µM): 1.28% | viability, T/C (second compound 0.00949 µM, first compound 0.000949 µM): 114% | viability, T/C (second compound 0.00949 µM, first compound 0.003 µM): 15.1% | viability, T/C (second compound 0.00949 µM, first compound 0.00949 µM): 1.72% | viability, T/C (second compound 0.00949 µM, first compound 0.03 µM): 1.61% | viability, T/C (second compound 0.00949 µM, first compound 0.0949 µM): 1.9% | viability, T/C (second compound 0.00949 µM, first compound 0.3 µM): 0.54% | viability, T/C (second compound 0.03 µM, first compound 0.000949 µM): 19.6% | viability, T/C (second compound 0.03 µM, first compound 0.003 µM): 2.7% | viability, T/C (second compound 0.03 µM, first compound 0.00949 µM): 1.2% | viability, T/C (second compound 0.03 µM, first compound 0.03 µM): 1.06% | viability, T/C (second compound 0.03 µM, first compound 0.0949 µM): 1.1% | viability, T/C (second compound 0.03 µM, first compound 0.3 µM): 0.6% | viability, T/C (second compound 0.0949 µM, first compound 0.000949 µM): 4.5% | viability, T/C (second compound 0.0949 µM, first compound 0.003 µM): 1.29% | viability, T/C (second compound 0.0949 µM, first compound 0.00949 µM): 1.45% | viability, T/C (second compound 0.0949 µM, first compound 0.03 µM): 0.94% | viability, T/C (second compound 0.0949 µM, first compound 0.0949 µM): 1.04% | viability, T/C (second compound 0.0949 µM, first compound 0.3 µM): 0.39% | viability, T/C (second compound 0.3 µM, first compound 0.000949 µM): 2.56% | viability, T/C (second compound 0.3 µM, first compound 0.003 µM): 1.55% | viability, T/C (second compound 0.3 µM, first compound 0.00949 µM): 0.57% | viability, T/C (second compound 0.3 µM, first compound 0.03 µM): 0.84% | viability, T/C (second compound 0.3 µM, first compound 0.0949 µM): 1.38% | viability, T/C (second compound 0.3 µM, first compound 0.3 µM): 0.4%
